PMC3814793, “Identification of a Plasmodium falciparum Phospholipid Transfer Protein” (The Journal of Biological Chemistry, 2013)

Tests used:
Experiment in all cases: radiolabelled phospholipid transfer between donor and acceptor vesicles
Type in all cases: biochemical
PFA0210cN123 = target: T1, PFA0210cN123 (Plasmodium falciparum, UniProt Q8I298); conditions: labelled compound, donor vesicles PC, phosphatidic acid, N-lactosylethanolamine
T1 construct: gene PF3D7_0104200

PFA0210cN99 = target: T2, PFA0210cN99 (Plasmodium falciparum, UniProt Q8I298); conditions: labelled compound, donor vesicles PC, phosphatidic acid, N-lactosylethanolamine
T2 construct: gene PF3D7_0104200
T2 sequence (Q8I298 entry or part of it): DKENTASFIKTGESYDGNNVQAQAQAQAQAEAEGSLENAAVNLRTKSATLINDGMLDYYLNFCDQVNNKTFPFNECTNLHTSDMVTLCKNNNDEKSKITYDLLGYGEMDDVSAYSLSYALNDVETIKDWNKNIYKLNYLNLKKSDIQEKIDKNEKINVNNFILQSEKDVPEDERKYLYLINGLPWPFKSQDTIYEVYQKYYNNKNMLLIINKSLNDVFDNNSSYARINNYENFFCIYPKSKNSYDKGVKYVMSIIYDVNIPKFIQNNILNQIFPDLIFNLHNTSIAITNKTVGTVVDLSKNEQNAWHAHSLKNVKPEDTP

[1] = target: T3, PITP (rat phosphatidylinositol transfer protein α) (Rattus norvegicus, UniProt P16446); conditions: labelled compound; positive control protein; vesicles as in the rows above
T3 construct: gene Pitpna
T3 sequence (P16446 2-271): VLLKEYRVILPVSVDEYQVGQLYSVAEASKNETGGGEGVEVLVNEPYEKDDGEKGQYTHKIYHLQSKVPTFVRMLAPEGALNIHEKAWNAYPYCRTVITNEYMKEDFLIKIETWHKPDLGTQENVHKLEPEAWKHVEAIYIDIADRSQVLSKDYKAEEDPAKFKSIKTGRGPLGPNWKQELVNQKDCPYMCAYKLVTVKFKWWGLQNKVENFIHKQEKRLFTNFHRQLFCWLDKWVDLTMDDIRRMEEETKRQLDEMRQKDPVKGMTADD

T1 sequence (Q8I298 entry or part of it): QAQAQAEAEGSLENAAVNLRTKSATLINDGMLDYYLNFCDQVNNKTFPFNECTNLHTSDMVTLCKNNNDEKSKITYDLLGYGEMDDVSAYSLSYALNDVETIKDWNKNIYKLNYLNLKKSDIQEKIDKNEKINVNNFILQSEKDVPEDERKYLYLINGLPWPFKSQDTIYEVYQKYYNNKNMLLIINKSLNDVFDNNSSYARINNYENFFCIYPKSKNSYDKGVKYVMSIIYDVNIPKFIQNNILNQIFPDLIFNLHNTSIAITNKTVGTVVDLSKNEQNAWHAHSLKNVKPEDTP

With CCCCCCCCCCCCCCCC(=O)OC[C@H](COP(=O)([O-])OCC[N+](C)(C)C)OC(=O)CCCCCCCCCCCCCCC [L-[α-dipalmitoyl-1-14C]phosphatidylcholine] the “radiolabelled phospholipid transfer between donor and acceptor vesicles” value (PFA0210cN123) was “(PFA0210cN99, PFA0210cN123, and PFA0210cN144, respectively) as the N-terminal residue can transfer phospholipids”, the “radiolabelled phospholipid transfer between donor and acceptor vesicles” value (PFA0210cN99) was “(PFA0210cN99, PFA0210cN123, and PFA0210cN144, respectively) as the N-terminal residue can transfer phospholipids” and the “radiolabelled phospholipid transfer between donor and acceptor vesicles” value [1] was “transferred PC at levels similar to that of the control protein PITP”.
